Where a SMILES comes first, the peptide text is derived from it. Bridges are numbered along the chain shown (N, C = ends). [ ]: non-standard residue; d: D form. The star is where a group is joined. X1 = NC[C@@H](CC(=O)*)c1cccc(Cl)c1; Dab = NCC[C@H](N)C(=O)O; Dap = NC[C@H](N)C(=O)O
Experiments:
[1] = system: A. baumannii ATCC 17978 (SEN) and A. baumannii ATCC BAA-1605 (MDR); assay: Adaptive laboratory evolution (ALE), relative MIC of evolved lines; type: cell-based, Acinetobacter baumannii
Outline: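 Ten parallel populations per antibiotic–ancestor pair were evolved in MHB at 37 °C, starting near 50% growth-inhibiting drug. Every 72 h they were passaged into 0.5–2.5× increasing concentrations, keeping the highest-drug well with OD600 > 0.2.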

E. coli ATCC25922 = assay: Dose-response killing curves (99.9% killing concentration, Hill coefficient); type: cell-based, Escherichia coli; details: dose-response killing curve
[2] = AB-MDR (Acinetobacter baumannii ATCC BAA 1605), evolved line 2
[3] = AB-SEN (Acinetobacter baumannii ATCC 17978), evolved line 1
[4] = AB-SEN (Acinetobacter baumannii ATCC 17978), evolved line 3
[5] = AB-SEN (Acinetobacter baumannii ATCC 17978), evolved line 5
[6] = AB-SEN (Acinetobacter baumannii ATCC 17978), evolved line 8
[7] = AB-SEN (Acinetobacter baumannii ATCC 17978), evolved line 9

## CC(C)C[C@@H]1NC(=O)[C@@H](Cc2ccccc2)NC(=O)[C@H](CCN)NC(=O)[C@@H](NC(=O)[C@H](CN)NC(=O)[C@@H](NC(=O)C[C@H](CN)c2cccc(Cl)c2)[C@@H](C)O)CCNC(=O)[C@H]([C@@H](C)O)NC(=O)[C@H](CCN)NC(=O)[C@H](CCN)NC1=O [SPR206] (X1-T[Dap][Dab][Dab][dF]L[Dab][Dab]T; lactam 3-C (inferred); N-terminus assumed)
[1]; AB-MDR (ATCC BAA 1605), evolved line 1, evolved vs ancestor
  Relative MIC: 2048
[1]; AB-MDR (ATCC BAA 1605), evolved line 2, evolved vs ancestor
  Relative MIC: 8192
[1]; AB-MDR (ATCC BAA 1605), evolved line 3, evolved vs ancestor
  Relative MIC: 512
[1]; AB-MDR (ATCC BAA 1605), evolved line 4, evolved vs ancestor
  Relative MIC: 2048
[1]; AB-MDR (ATCC BAA 1605), evolved line 5, evolved vs ancestor
  Relative MIC: 8192
[1]; AB-MDR (ATCC BAA 1605), evolved line 6, evolved vs ancestor
  Relative MIC: 8192
[1]; AB-MDR (ATCC BAA 1605), evolved line 7, evolved vs ancestor
  Relative MIC: 8192
[1]; AB-MDR (ATCC BAA 1605), evolved line 8, evolved vs ancestor
  Relative MIC: 4096
[1]; AB-MDR (ATCC BAA 1605), evolved line 9, evolved vs ancestor
  Relative MIC: 8192
[1]; AB-MDR (ATCC BAA 1605), evolved line 10, evolved vs ancestor
  Relative MIC: 1024
[1]; AB-MDR (Acinetobacter baumannii ATCC BAA 1605), evolved line 1
  Relative MIC: 2048
[1]; [2]
  Relative MIC: 8192
  Relative MIC (log10): 3.913 log10
[1]; AB-MDR (Acinetobacter baumannii ATCC BAA 1605), evolved line 5
  Relative MIC (log10): 3.913 log10
[1]; AB-MDR (Acinetobacter baumannii ATCC BAA 1605), evolved line 6
  Relative MIC (log10): 3.913 log10
[1]; AB-MDR (Acinetobacter baumannii ATCC BAA 1605), evolved line 7
  Relative MIC (log10): 3.913 log10
[1]; AB-MDR (Acinetobacter baumannii ATCC BAA 1605), evolved line 9
  Relative MIC (log10): 3.913 log10
[1]; AB-MDR ATCC BAA 1605, evolved line 1
  MIC of evolved line: 256 mg/L
[1]; AB-MDR ATCC BAA 1605, evolved line 2
  MIC of evolved line: 1020 mg/L
[1]; AB-MDR ATCC BAA 1605, evolved line 3
  MIC of evolved line: 64 mg/L
[1]; AB-MDR ATCC BAA 1605, evolved line 4
  MIC of evolved line: 256 mg/L
[1]; AB-MDR ATCC BAA 1605, evolved line 5
  MIC of evolved line: 1020 mg/L
[1]; AB-MDR ATCC BAA 1605, evolved line 6
  MIC of evolved line: 1020 mg/L
[1]; AB-MDR ATCC BAA 1605, evolved line 7
  MIC of evolved line: 1020 mg/L
[1]; AB-MDR ATCC BAA 1605, evolved line 8
  MIC of evolved line: 512 mg/L
[1]; AB-MDR ATCC BAA 1605, evolved line 9
  MIC of evolved line: 1020 mg/L
[1]; AB-MDR ATCC BAA 1605, evolved line 10
  MIC of evolved line: 128 mg/L
[1]; AB-SEN (A. baumannii ATCC 17978), evolved line 1 of the given antibiotic
  MIC of evolved line: 256 mg/L
[1]; AB-SEN (A. baumannii ATCC 17978), evolved line 1 vs ancestor
  Relative MIC: 2048
[1]; AB-SEN (A. baumannii ATCC 17978), evolved line 2 of the given antibiotic
  MIC of evolved line: 1020 mg/L
[1]; AB-SEN (A. baumannii ATCC 17978), evolved line 2 vs ancestor
  Relative MIC: 8192
[1]; AB-SEN (A. baumannii ATCC 17978), evolved line 3 of the given antibiotic
  MIC of evolved line: 64 mg/L
[1]; AB-SEN (A. baumannii ATCC 17978), evolved line 3 vs ancestor
  Relative MIC: 512
[1]; AB-SEN (A. baumannii ATCC 17978), evolved line 4 of the given antibiotic
  MIC of evolved line: 256 mg/L
[1]; AB-SEN (A. baumannii ATCC 17978), evolved line 4 vs ancestor
  Relative MIC: 2048
[1]; AB-SEN (A. baumannii ATCC 17978), evolved line 5 of the given antibiotic
  MIC of evolved line: 1020 mg/L
[1]; AB-SEN (A. baumannii ATCC 17978), evolved line 5 vs ancestor
  Relative MIC: 8192
[1]; AB-SEN (A. baumannii ATCC 17978), evolved line 6 of the given antibiotic
  MIC of evolved line: 1020 mg/L
[1]; AB-SEN (A. baumannii ATCC 17978), evolved line 6 vs ancestor
  Relative MIC: 8192
[1]; AB-SEN (A. baumannii ATCC 17978), evolved line 7 of the given antibiotic
  MIC of evolved line: 1020 mg/L
[1]; AB-SEN (A. baumannii ATCC 17978), evolved line 7 vs ancestor
  Relative MIC: 8192
[1]; AB-SEN (A. baumannii ATCC 17978), evolved line 8 of the given antibiotic
  MIC of evolved line: 512 mg/L
[1]; AB-SEN (A. baumannii ATCC 17978), evolved line 8 vs ancestor
  Relative MIC: 4096
[1]; AB-SEN (A. baumannii ATCC 17978), evolved line 9 of the given antibiotic
  MIC of evolved line: 1020 mg/L
[1]; AB-SEN (A. baumannii ATCC 17978), evolved line 9 vs ancestor
  Relative MIC: 8192
[1]; AB-SEN (ATCC 17978), evolved line 10
  MIC of evolved line: 128 mg/L
[1]; AB-SEN (ATCC 17978), evolved line 10, evolved vs ancestor
  Relative MIC: 1024
[1]; [3]
  Relative MIC: 2048
  Relative MIC (log10): 3.311 log10
[1]; AB-SEN (Acinetobacter baumannii ATCC 17978), evolved line 2
  Relative MIC: 8192
[1]; [4]
  Relative MIC: 512
  Relative MIC (log10): 2.709 log10
[1]; AB-SEN (Acinetobacter baumannii ATCC 17978), evolved line 4
  Relative MIC: 2048
[1]; [5]
  Relative MIC: 8192
  Relative MIC (log10): 3.913 log10
[1]; AB-SEN (Acinetobacter baumannii ATCC 17978), evolved line 6
  Relative MIC: 8192
[1]; [6]
  Relative MIC: 4096
  Relative MIC (log10): 3.612 log10
[1]; [7]
  Relative MIC: 8192
  Relative MIC (log10): 3.913 log10
[1]; AB-SEN (Acinetobacter baumannii ATCC 17978), evolved line 10
  Relative MIC: 1024
[1]; AB-SEN, Acinetobacter baumannii ATCC 17978, evolved line 7
  Relative MIC: 8192
[1]; ALE, A. baumannii ATCC 17978 (AB-SEN), evolved line 1
  Relative MIC: 2048
[1]; ALE, A. baumannii ATCC 17978 (AB-SEN), evolved line 2
  Relative MIC: 8192
[1]; ALE, A. baumannii ATCC 17978 (AB-SEN), evolved line 3
  Relative MIC: 512
[1]; ALE, A. baumannii ATCC 17978 (AB-SEN), evolved line 4
  Relative MIC: 2048
[1]; ALE, A. baumannii ATCC 17978 (AB-SEN), evolved line 5
  Relative MIC: 8192
[1]; ALE, A. baumannii ATCC 17978 (AB-SEN), evolved line 6
  Relative MIC: 8192
[1]; ALE, A. baumannii ATCC 17978 (AB-SEN), evolved line 7
  Relative MIC: 8192
[1]; ALE, A. baumannii ATCC 17978 (AB-SEN), evolved line 8
  Relative MIC: 4096
[1]; ALE, A. baumannii ATCC 17978 (AB-SEN), evolved line 9
  Relative MIC: 8192
[1]; ALE, A. baumannii ATCC 17978 (AB-SEN), evolved line 10
  Relative MIC: 1024
[1]; ALE, A. baumannii ATCC BAA 1605 (AB-MDR), evolved line 1
  Relative MIC: 2048
[1]; ALE, A. baumannii ATCC BAA 1605 (AB-MDR), evolved line 2
  Relative MIC: 8192
[1]; ALE, A. baumannii ATCC BAA 1605 (AB-MDR), evolved line 3
  Relative MIC: 512
[1]; ALE, A. baumannii ATCC BAA 1605 (AB-MDR), evolved line 4
  Relative MIC: 2048
[1]; ALE, A. baumannii ATCC BAA 1605 (AB-MDR), evolved line 5
  Relative MIC: 8192
[1]; ALE, A. baumannii ATCC BAA 1605 (AB-MDR), evolved line 6
  Relative MIC: 8192
[1]; ALE, A. baumannii ATCC BAA 1605 (AB-MDR), evolved line 7
  Relative MIC: 8192
[1]; ALE, A. baumannii ATCC BAA 1605 (AB-MDR), evolved line 8
  Relative MIC: 4096
[1]; ALE, A. baumannii ATCC BAA 1605 (AB-MDR), evolved line 9
  Relative MIC: 8192
[1]; ALE, A. baumannii ATCC BAA 1605 (AB-MDR), evolved line 10
  Relative MIC: 1024
[1]; Acinetobacter baumannii ATCC 17978 (AB-SEN), evolved line 1
  Relative MIC: 2048
[1]; Acinetobacter baumannii ATCC 17978 (AB-SEN), evolved line 2
  Relative MIC: 8192
[1]; Acinetobacter baumannii ATCC 17978 (AB-SEN), evolved line 3
  Relative MIC: 512
[1]; Acinetobacter baumannii ATCC 17978 (AB-SEN), evolved line 4
  Relative MIC: 2048
[1]; Acinetobacter baumannii ATCC 17978 (AB-SEN), evolved line 5
  Relative MIC: 8192
[1]; Acinetobacter baumannii ATCC 17978 (AB-SEN), evolved line 6
  Relative MIC: 8192
[1]; Acinetobacter baumannii ATCC 17978 (AB-SEN), evolved line 7
  Relative MIC: 8192
[1]; Acinetobacter baumannii ATCC 17978 (AB-SEN), evolved line 8
  Relative MIC: 4096
[1]; Acinetobacter baumannii ATCC 17978 (AB-SEN), evolved line 9
  Relative MIC: 8192
[1]; Acinetobacter baumannii ATCC 17978 (AB-SEN), evolved line 10
  Relative MIC: 1024
[1]; Acinetobacter baumannii ATCC BAA 1605 (AB-MDR), evolved line 2
  Relative MIC: 8192
[1]; Acinetobacter baumannii ATCC BAA 1605 (AB-MDR), evolved line 4
  Relative MIC: 2048
[1]; Acinetobacter baumannii ATCC BAA 1605 (AB-MDR), evolved line 5
  Relative MIC: 8192
[1]; Acinetobacter baumannii ATCC BAA 1605 (AB-MDR), evolved line 6
  Relative MIC: 8192
[1]; Acinetobacter baumannii ATCC BAA 1605 (AB-MDR), evolved line 7
  Relative MIC: 8192
[1]; Acinetobacter baumannii ATCC BAA 1605 (AB-MDR), evolved line 8
  Relative MIC: 4096
[1]; Acinetobacter baumannii ATCC BAA 1605 (AB-MDR), evolved line 9
  Relative MIC: 8192
[1]; Acinetobacter baumannii ATCC BAA 1605 (AB-MDR), evolved line 10
  Relative MIC: 1024
[1]; Acinetobacter baumannii ATCC BAA 1605 (AB-MDR), evolved line 1
  Relative MIC: 2048
[1]; Acinetobacter baumannii ATCC BAA 1605 (AB-MDR), evolved line 3
  Relative MIC: 512
E. coli ATCC25922
  Steepness (Hill Coefficient): 59.45
E. coli ATCC25922; unit not given
  99.9% killing (10^-3): 0.18
